In patent publication US20050170391A1, “TAUT1 transporters expressed in blood brain barrier cells” (Xenoport, Inc., priority 2004, published 2005):
Where “and” joins values, the source holds several entries; their conditions need not be identical. Identical values can stand only once. One block for each molecule: values may come before it.

Legend:
TAUT1 [1] = biological target: T1, TAUT1 (Homo sapiens, UniProt P31641); conditions: reported value, source not given; cited from earlier work
T1 sequence (P31641 1-620): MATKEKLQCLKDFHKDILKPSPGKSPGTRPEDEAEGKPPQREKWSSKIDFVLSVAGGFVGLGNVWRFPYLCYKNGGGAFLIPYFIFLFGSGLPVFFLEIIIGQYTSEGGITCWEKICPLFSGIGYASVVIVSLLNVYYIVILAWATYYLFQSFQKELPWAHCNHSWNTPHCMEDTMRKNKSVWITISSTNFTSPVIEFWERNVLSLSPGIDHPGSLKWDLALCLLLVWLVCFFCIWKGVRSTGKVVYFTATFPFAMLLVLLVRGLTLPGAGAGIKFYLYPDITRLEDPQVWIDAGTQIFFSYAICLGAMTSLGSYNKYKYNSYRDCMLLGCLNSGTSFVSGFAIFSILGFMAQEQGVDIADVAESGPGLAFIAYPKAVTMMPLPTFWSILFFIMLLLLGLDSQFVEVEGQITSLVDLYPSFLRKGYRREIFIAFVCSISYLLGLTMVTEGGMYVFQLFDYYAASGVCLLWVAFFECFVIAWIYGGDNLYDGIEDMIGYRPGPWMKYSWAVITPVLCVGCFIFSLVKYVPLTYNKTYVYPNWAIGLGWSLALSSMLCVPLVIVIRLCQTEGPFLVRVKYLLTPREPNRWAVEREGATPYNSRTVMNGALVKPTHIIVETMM

TAUT1 [2] = biological target: T1, TAUT1; assay: hTAUT1 competition uptake assay in HEK-TREx-TAUT1 cells; assay type: cell-based; design: expressed in transfected cells; host or cells: HEK-TREx cells (HEK-TREx-TAUT1 inducible line)
Description: A modified competition uptake assay was developed to determine the ability of a test compound(s) to inhibit the uptake of radiolabeled substrates into HEK-TREx-TAUT1 cells induced to over-express hTAUT. The results are stated as affinities (IC50).
The competition uptake assay were prepared as follows: Compounds were prepared for assay by diluting a 100 mM stock concentration (in DMSO) to the appropriate working concentration. Typically, seven-point dose response curves were prepared starting at a final assay concentration of 1 mM and carrying out three-fold dilutions. These dilutions were prepared by making a working “compound” plate that contained a 2× solution of the desired starting concentration of each test compound in duplicate in row A of a v-bottom microtiter plate. Six 3-fold serial dilutions (from row B to G) were made into the HBSS assay buffer (9.8 g/L Hank's Balance Salts (Sigma; H-1387), 2.6 g/L HEPES (10 mM) (Sigma; H-3375), 0.35 g/L NaHCO3 (4.2 mM) (Sigma; S-6297), pH to 7.4 with 5N NaOH) (with the appropriate amount of DMSO so that the DMSO concentration remains constant at all dilutions). The resulting “compound” plate contained serial dilutions of six compounds in duplicate.
^3H-GABA was diluted into HBSS buffer to a final concentration of 4,000 cpm/μl. Enough solution was prepared to allow addition of 25 μl/well (the final concentration was 100,000 cpm/well).
HEK-TREx-hTAUT cells, plated in 96-well plates and treated with tetracycline (or tet analog (e.g., doxycycline), were removed from the incubator. Growth media was removed from the cells, and the cells were washed twice in room temperature HBSS (100 μl/well/wash) using a 96-well plate washer (Bio Tek ELX405). Alternatively, cells were washed manually with equivalent volumes using a multichannel pipettor. Immediately before beginning the assay, the final 100 μl wash solution was removed from the cells by aspiration.
Using a 96-well pipettor, 25 μl from the “compound” plate was added to each well of the cell plate. The assay was started by adding 25 μl of the ^3H-GABA working solution. The plate was incubated at room temperature for 15 minutes. The assay was stopped by washing the cells four times with ice-cold HBSS buffer using a ELX 405 plate washer (100 μl buffer/well/wash) having an angled buffer dispenser.
Scintillation fluid (200 μl) (Optiphase Supermix (Perkin Elmer) was added to each well, and the plate was covered with a 96-well adhesive plate cover and placed on a shaker for 10 minutes. The plates were counted on a 96-well plate scintillation counter for 60 sec/well. The data were analyzed using a sigmoidal dose response curve-fitting program ((Prism, GraphPad, Inc, San Diego, Calif.; equation: one-site competition).
FIG. 7 depicts the results of a competition experiment using HEK-TREx-TAUT1 cells. ^3H-taurine was used as the substrate and unlabeled taurine was used as the competitor. The competition experiment was performed as described in Example 7. Non-specific uptake was determined by measuring the uptake into cells not induced to express the transporter (“no tet”). […] In control cells, uptake of labeled taurine remained at background levels and was largely unaffected by an excess of unlabeled taurine.
These four compounds, IAA, R,S-Baclofen, GPA, and GABA, were tested in both competition and direct uptake assays. One notable difference in the competition assay format compared to the literature is that ^3H-GABA was used, rather than ^3H-taurine, as the radiolabel. […] Therefore, to develop a competition assay that is as sensitive as possible, ^3H-GABA, a substrate with a much […] affinity, was used.

TAUT1 [3] = biological target: T1, TAUT1; assay: ^3H-taurine uptake by Xenopus oocytes injected with TAUT1 cRNA; assay type: cell-based; design: expressed in transfected cells; host or cells: Xenopus oocytes injected with TAUT1 cRNA; conditions: oocytes expressing TAUT1 vs noninjected controls (FIG. 2)
PgP = PgP (Homo sapiens, UniProt P08183); assay: Cellular transwell monolayer efflux assay, MDCK cells with TREx-PgP
Description: A third type of efflux transporter assay is the cellular transwell monolayer efflux assay. In this assay, cells expressing efflux transporters, such as MDCK cells containing the TREx-PgP expression vector (Invitrogen Inc., Carlsbad, Calif.), are seeded and grown in transwell dishes on filter membranes made of substances such as polycarbonate. The cells form a polarized monolayer. The transwell dishes have apical and basolateral chambers that are separated by the filter membrane on which the polarized monolayer is situated. Assays are performed by placing a test compound in either the apical or basolateral chamber, followed by sampling the opposite chamber after a predetermined period of time such as 60-120 minutes and measuring the amount of the test compound. The test compound can be measured by methods such as radiolabel detection or LC-MS-MS analysis. Assays are performed in the presence and absence of an efflux transporter inhibitor or competitor. Efflux transporter inhibitors or competitors increase apical to basolateral transport and decrease basolateral to apical transport of compounds that are efflux transporter substrates. Apparent permeability (Papp) of test compounds is measured. […] Test compounds that generate ratios between 1.5 and 2.0 require additional testing to determine if they are efflux transporter substrates. An agent, conjugate, or conjugate moiety that is a TAUT1 substrate and also generates a ratio of greater than 2.0 can be modified.
MDCK cells transfected with the tetracycline-inducible TREx-PgP expression vector were seeded on polycarbonate filter membranes in transwell dishes and grown for 3-5 days, yielding a polarized monolayer with tight junctions between cells. […] The left set of bars depicts apical to basolateral transport, while the right set of bars depicts basolateral to apical transport.

[4] = substrate: NCCCC(=O)O; assay: cells, lysate or membranes; conditions: other: direct uptake into HEK-TREx-TAUT1 cells, +TET minus no TET; 15 min, room temperature
[5] = 2.5 nM ^3H-vinblastine, in the presence of 250 μM verapamil vs absence (FIG. 6)

Chain of PgP (P08183 whole entry): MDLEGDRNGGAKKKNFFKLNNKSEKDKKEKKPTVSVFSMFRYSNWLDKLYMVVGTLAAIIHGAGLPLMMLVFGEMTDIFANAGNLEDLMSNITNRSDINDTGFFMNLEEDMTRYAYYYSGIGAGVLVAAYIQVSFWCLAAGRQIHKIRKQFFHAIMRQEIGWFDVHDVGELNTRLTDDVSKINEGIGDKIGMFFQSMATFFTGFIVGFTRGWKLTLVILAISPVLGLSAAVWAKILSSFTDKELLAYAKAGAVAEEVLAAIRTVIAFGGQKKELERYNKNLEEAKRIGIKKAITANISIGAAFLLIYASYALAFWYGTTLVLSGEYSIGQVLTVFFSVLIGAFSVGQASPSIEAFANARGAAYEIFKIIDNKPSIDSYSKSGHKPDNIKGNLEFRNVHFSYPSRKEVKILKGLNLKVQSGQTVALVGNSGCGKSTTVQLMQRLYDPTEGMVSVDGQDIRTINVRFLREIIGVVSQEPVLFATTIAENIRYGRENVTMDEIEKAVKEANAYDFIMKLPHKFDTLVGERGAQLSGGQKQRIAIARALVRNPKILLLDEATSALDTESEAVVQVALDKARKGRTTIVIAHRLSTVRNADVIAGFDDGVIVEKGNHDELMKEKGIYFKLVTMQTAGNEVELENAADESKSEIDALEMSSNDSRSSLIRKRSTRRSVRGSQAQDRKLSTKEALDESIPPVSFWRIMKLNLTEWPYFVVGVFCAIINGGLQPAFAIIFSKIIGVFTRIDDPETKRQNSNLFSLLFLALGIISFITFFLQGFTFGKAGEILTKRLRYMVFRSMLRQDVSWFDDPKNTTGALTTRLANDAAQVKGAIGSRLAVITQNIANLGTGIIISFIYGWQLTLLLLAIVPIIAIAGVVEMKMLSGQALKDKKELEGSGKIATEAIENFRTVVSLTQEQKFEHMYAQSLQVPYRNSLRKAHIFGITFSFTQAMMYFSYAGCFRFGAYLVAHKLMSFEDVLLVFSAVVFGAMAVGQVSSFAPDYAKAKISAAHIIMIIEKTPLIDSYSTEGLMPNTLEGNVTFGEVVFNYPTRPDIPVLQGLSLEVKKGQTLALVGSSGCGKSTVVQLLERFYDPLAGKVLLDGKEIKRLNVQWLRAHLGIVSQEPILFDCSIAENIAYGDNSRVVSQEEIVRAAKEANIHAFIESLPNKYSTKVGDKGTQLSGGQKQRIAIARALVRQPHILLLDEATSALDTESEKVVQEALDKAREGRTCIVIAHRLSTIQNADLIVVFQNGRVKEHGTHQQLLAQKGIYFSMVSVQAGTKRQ

IC50 (TAUT1 [2]; HEK-TREx-TAUT1 cells induced with tetracycline, ^3H-GABA radiolabel (taurine: ^3H-taurine per Example 9), 15 min, room temperature): 10 µM
radiolabel uptake (TAUT1 [2]; ^3H-taurine as radiolabel in HEK-TREx-TAUT1 cells, in a very short time): > 25 % of the input cpm
Molecule: NCCS(=O)(=O)O [Taurine]
Reported Affinity for TAUT1 (TAUT1 [1]): 0.1 mM
uptake of labeled taurine with increasing unlabeled taurine (TAUT1 [2]; ^3H-taurine substrate, unlabeled taurine competitor, cells induced to express TAUT1 (FIG. 7)): the uptake of labeled taurine decreased as the concentration of unlabeled taurine increased
^3H-taurine uptake (TAUT1 [3]): higher levels of ^3H-taurine uptake than noninjected controls

Molecule: CC[C@]1(O)C[C@@H]2CN(CCc3c([nH]c4ccccc34)[C@@](C(=O)OC)(c3cc4c(cc3OC)N(C)[C@H]3[C@@](O)(C(=O)OC)[C@H](OC(C)=O)[C@]5(CC)C=CCN6CC[C@]43[C@@H]65)C2)C1 [^3H-vinblastine]
Apical to basolateral transport (PgP; [5]): strongly increased
basolateral to apical transport (PgP; [5]): strongly decreased
PgP substrate status (PgP; conclusion from transwell transport with and without verapamil): substrate of PgP

B1: hTAUT1 (Homo sapiens) (protein)
chain: T1 sequence (P31641 1-620)
Km [4]: 270 µM and 200 µM
